Test results: the supplement of paper PMC10307832

Legend:
Assay in all cases: relative viability (nuclei count vs DMSO), 5 days (fraction); higher = more cells survive
Pemetrexed + Trametinib = compound: Nc1nc2[nH]cc(CCc3ccc(C(=O)N[C@@H](CCC(=O)O)C(=O)O)cc3)c2c(=O)[nH]1 [Pemetrexed] + CC(=O)Nc1cccc(-n2c(=O)n(C3CC3)c(=O)c3c(Nc4ccc(I)cc4F)n(C)c(=O)c(C)c32)c1 [Trametinib] (partner 0.02 µM)
Method in brief: (§1)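 One day after seeding in 1536-well plates, lung cancer cell lines were dosed by pin tool. Dosing was either single-drug or a fixed anchor-drug dose plus five library-drug doses (not always all listed) in √10 steps. After 5 days, nuclei were stained in one fix-and-stain step and counted on 4× images, and relative viability is the nuclei count of treated wells over that of vehicle wells, given as the median of duplicate plates.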

Pemetrexed + Phenformin = compound: Nc1nc2[nH]cc(CCc3ccc(C(=O)N[C@@H](CCC(=O)O)C(=O)O)cc3)c2c(=O)[nH]1 [Pemetrexed] + N=C(N)NC(=N)NCCc1ccccc1 [Phenformin] (partner 250 µM)
Method in brief: as §1

Idelalisib + Navitoclax = compound: CC[C@H](Nc1ncnc2[nH]cnc12)c1nc2cccc(F)c2c(=O)n1-c1ccccc1 [Idelalisib] + CC1(C)CCC(c2ccc(Cl)cc2)=C(CN2CCN(c3ccc(C(=O)NS(=O)(=O)c4ccc(N[C@H](CCN5CCOCC5)CSc5ccccc5)c(S(=O)(=O)C(F)(F)F)c4)cc3)CC2)C1 [Navitoclax] (partner 0.5 µM)
Method in brief: as §1

Pemetrexed + Vorinostat = compound: Nc1nc2[nH]cc(CCc3ccc(C(=O)N[C@@H](CCC(=O)O)C(=O)O)cc3)c2c(=O)[nH]1 [Pemetrexed] + O=C(CCCCCCC(=O)Nc1ccccc1)NO [Vorinostat] (partner 1 µM)
Method in brief: as §1

Row | Cell Line | relative viability (Pemetrexed + Trametinib; first compound 0.002 µM) | relative viability (Pemetrexed + Trametinib; first compound 0.006325 µM) | relative viability (Pemetrexed + Trametinib; first compound 0.02 µM) | relative viability (Pemetrexed + Trametinib; first compound 0.06325 µM) | relative viability (Pemetrexed + Trametinib; first compound 0.2 µM) | relative viability (Pemetrexed + Phenformin; first compound 0.002 µM) | relative viability (Pemetrexed + Phenformin; first compound 0.006325 µM) | relative viability (Pemetrexed + Phenformin; first compound 0.02 µM) | relative viability (Pemetrexed + Phenformin; first compound 0.06325 µM) | relative viability (Pemetrexed + Phenformin; first compound 0.2 µM) | relative viability (Idelalisib + Navitoclax; first compound 0.04 µM) | relative viability (Idelalisib + Navitoclax; first compound 0.1265 µM) | relative viability (Idelalisib + Navitoclax; first compound 0.4 µM) | relative viability (Idelalisib + Navitoclax; first compound 1.265 µM) | relative viability (Idelalisib + Navitoclax; first compound 4 µM) | relative viability (Pemetrexed + Vorinostat; first compound 0.002 µM) | relative viability (Pemetrexed + Vorinostat; first compound 0.006325 µM) | relative viability (Pemetrexed + Vorinostat; first compound 0.02 µM) | relative viability (Pemetrexed + Vorinostat; first compound 0.06325 µM) | relative viability (Pemetrexed + Vorinostat; first compound 0.2 µM)
1 | NCI-H1792 | 0.374 | 0.406 | 0.533 | 0.393 | 0.41 | 0.311 | 0.368 | 0.297 | 0.252 | 0.272 | 0.464 | 0.587 | 0.617 | 0.667 | 0.645 |  |  |  |  | 
2 | NCI-H1651 | 0.857 | 0.783 | 0.821 | 0.827 | 0.786 | 0.299 | 0.354 | 0.377 | 0.285 | 0.368 | 0.73 | 1.09 | 1.01 | 1.07 | 0.792 | 0.553 | 0.562 | 0.642 | 0.44 | 0.548
3 | A549 |  |  |  |  |  | 0.161 | 0.155 | 0.169 | 0.161 | 0.14 | 1.5 | 1.23 | 1.22 | 1.33 | 1.02 |  |  |  |  | 
4 | HCC-366 | 0.39 | 0.311 | 0.406 | 0.341 | 0.302 | 0.515 | 0.616 | 0.672 | 0.612 | 0.571 | 1.11 | 1.11 | 1.01 | 1.01 | 0.97 | 0.208 | 0.341 | 0.393 | 0.386 | 0.269
5 | EKVX | 0.337 | 0.327 | 0.37 | 0.297 | 0.218 | 0.246 | 0.284 | 0.26 | 0.254 | 0.206 | 0.863 | 0.914 | 0.876 | 0.807 | 0.853 | 0.683 | 0.654 | 0.724 | 0.793 | 0.557
6 | NCI-H1993 | 0.457 | 0.439 | 0.551 | 0.522 | 0.549 | 0.445 | 0.455 | 0.493 | 0.532 | 0.489 | 0.844 | 0.971 | 0.762 | 0.912 | 0.75 | 0.832 | 0.863 | 0.701 | 0.67 | 0.612
7 | NCI-H522 | 0.971 | 0.722 | 0.739 | 0.784 | 0.73 | 0.739 | 0.593 | 0.77 | 0.692 | 0.583 |  |  |  |  |  | 0.801 | 0.871 | 1.09 | 0.797 | 0.927
8 | NCI-H1703 |  |  |  |  |  |  |  |  |  |  | 1.15 | 1.05 | 0.922 | 1.13 | 0.501 |  |  |  |  | 
9 | NCI-H23 | 0.426 | 0.294 | 0.408 | 0.375 | 0.381 | 0.747 | 0.758 | 0.809 | 0.804 | 0.828 | 0.843 | 0.872 | 0.718 | 0.765 | 0.606 | 0.464 | 0.592 | 0.77 | 0.713 | 0.62
10 | HCC-827 | 0.453 | 0.544 | 0.6 | 0.472 | 0.404 | 0.366 | 0.417 | 0.436 | 0.4 | 0.37 | 1.06 | 1.05 | 1.03 | 1.03 | 0.964 | 0.764 | 0.912 | 0.959 | 0.515 | 0.426
11 | PC-3 [JPC-3] | 0.748 | 0.666 | 0.683 | 0.657 | 0.725 | 0.476 | 0.517 | 0.537 | 0.486 | 0.478 | 0.912 | 0.892 | 0.795 | 0.668 | 0.679 | 0.628 | 1.15 | 0.837 | 0.922 | 0.782
12 | NCI-H1355 | 0.404 | 0.441 | 0.392 | 0.416 | 0.418 | 0.432 | 0.468 | 0.45 | 0.503 | 0.438 | 0.982 | 0.947 | 0.701 | 0.774 | 0.667 | 0.526 | 0.603 | 0.667 | 0.599 | 0.62
13 | IA-LM |  |  |  |  |  |  |  |  |  |  | 0.905 | 0.856 | 1.01 | 1.08 | 0.919 | 0.95 | 0.988 | 1.1 | 0.808 | 0.982
14 | SW 900 | 0.841 | 0.793 | 0.928 | 0.67 | 0.549 | 0.759 | 0.578 | 0.763 | 0.548 | 0.477 |  |  |  |  |  | 0.499 | 0.523 | 0.682 | 0.576 | 0.406
15 | NCI-H1648 | 0.517 | 0.292 | 0.63 | 0.398 | 0.442 |  |  |  |  |  |  |  |  |  |  | 0.397 | 0.138 | 0.399 | 0.465 | 0.551
16 | NCI-H358 | 0.133 | 0.117 | 0.151 | 0.125 | 0.125 | 0.334 | 0.359 | 0.31 | 0.166 | 0.132 |  |  |  |  |  | 0.616 | 0.655 | 0.414 | 0.167 | 0.122
17 | NCI-H1563 |  |  |  |  |  | 0.745 | 0.649 | 0.67 | 0.651 | 0.64 |  |  |  |  |  |  |  |  |  | 
18 | LCLC-103H | 0.659 | 0.639 | 0.734 | 0.698 | 0.677 | 0.316 | 0.333 | 0.364 | 0.351 | 0.3 |  |  |  |  |  | 0.663 | 0.753 | 0.857 | 0.881 | 0.763
19 | NCI-H2342 | 0.763 | 0.757 | 0.773 | 0.857 | 0.841 | 0.501 | 0.6 | 0.526 | 0.54 | 0.618 |  |  |  |  |  | 0.824 | 0.831 | 0.749 | 0.773 | 0.843
20 | Calu-6 |  |  |  |  |  |  |  |  |  |  | 0.987 | 0.938 | 0.755 | 0.822 | 0.776 |  |  |  |  | 
21 | NCI-H1299 |  |  |  |  |  |  |  |  |  |  | 1.04 | 1.01 | 1.07 | 1.12 | 1.08 |  |  |  |  | 
22 | EBC-1 |  |  |  |  |  |  |  |  |  |  | 0.413 | 0.409 | 0.359 | 0.442 | 0.212 |  |  |  |  | 
23 | NCI-H650 | 0.894 | 0.887 |  | 1.03 | 1.02 | 0.406 | 0.468 | 0.457 | 0.428 | 0.469 |  |  |  |  |  | 0.378 | 0.552 |  | 0.427 | 0.453
